Values of other authors, collected in publication PMC7094870 (ACS chemical biology, 2020).

Test system: platinum resistant ovarian cancer and non-small cell lung cancer
Details: patients; cited from earlier work

For COc1ccc(C[C@H]2NC(=O)/C=C/C[C@@H]([C@H](C)[C@H]3O[C@@H]3c3ccccc3)OC(=O)[C@H](CC(C)C)OC(=O)C(C)(C)CNC2=O)cc1Cl [cryptophycin-52], the “dose limiting toxicity in clinical trials” value is given as “dose limiting peripheral neuropathy”.
